We go through 1 molecule from paper PMC5796017, “Enantiomeric Effect of D-Amino Acid Substitution on the Mechanism of Action of α-Helical Membrane-Active Peptides” (International Journal of Molecular Sciences, 2017).

For one data set, the system named is S. aureus ATCC25923. The data set is described as follows: Antimicrobial activity, microtiter dilution MIC. The data set is classed as cell-based, Staphylococcus aureus. The following applies: G+; MH medium, 5 × 10^5 CFU/mL, 37 °C, 24 h, triplicate. A digest of the protocol: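 Broth microdilution in Mueller–Hinton medium, inoculum 5 × 10^5 CFU/mL, serially diluted peptide, 24 h at 37 °C. MIC taken as lowest peptide concentration preventing growth; triplicate runs.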

A further data set has as its system E. coli ATCC25922. The data set is described as follows: AFM imaging. In kind it is cell-based, Escherichia coli. As to conditions: treatment 30 min, imaged in air, contact mode. As for the experimental part: (§1) The mechanism of the interaction of the peptides with the different kinds of membranes was further analyzed by AFM. E. coli and HeLa cells were imaged to observe the morphologic change of cell membranes with, and without, treatment with V13K. […] Similarly, the surface of untreated cells fixed with, or without, 4% paraformaldehyde were intact and the membrane surface appeared quite smooth (Figure 4E–H).
(§2) The AFM imaging of E. coli ATCC25922 and HeLa cells before, and after, incubation with V13K were performed using an AFM 5500 (Agilent Technologies, Chandler, AZ, USA). The AFM imaging of E. coli was used on the contact mode and the cantilever was used as the B-tip (DNP, B-tip, Bruker AFM probes, California, CA, USA). The AFM imaging of HeLa was used on the AAC mode and the cantilever was used as the D-tip (DNP, D-tip, Bruker AFM probes, Camarillo, California, CA, USA). A single bacterial colony was picked and cultured in Mueller–Hinton (MH) medium for 18–20 h. […] The E. coli and peptide-treated bacteria samples (after treatment for 30 min) were applied onto mica and imaged in air using the contact mode and recorded with 512 × 512 pixels. The images of HeLa cells and peptide-treated HeLa cells (after treatment for 5 min) were obtained in Dulbecco’s Modified Eagle’s medium (DMEM) using the Acoustic AC (AAC) mode and recorded with 512 × 512 pixels. […]

The subject of data set [1] is human red blood (hRBC) cells. Kind of data set: Hemolytic activity assay. In kind it is cell-based. As to conditions: 2% human RBC in PBS, 37 °C, 2 h, absorbance 578 nm, triplicate. A digest of the protocol:
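Healthy human RBCs (2% suspension in PBS) were incubated with serially diluted peptides for 2 h at 37 °C, and released hemoglobin in supernatant was read at 578 nm. Percent hemolysis was taken relative to distilled water (100%) after subtracting PBS (0%); run in triplicate.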

For a further data set, the system named is HeLa cells. The data set is described as follows: AFM imaging. The data set is classed as cell-based, human. As to conditions: treatment 5 min, DMEM, AAC mode. As for the experimental part: as §1, §2

In brackets after ≈: the same amount, converted by molar mass.

As for `CC[C@H](C)[C@H](NC(=O)[C@H](C)NC(=O)[C@H](CCCCN)NC(=O)[C@H](CC(C)C)NC(=O)[C@H](C)NC(=O)[C@@H](NC(=O)[C@H](Cc1cnc[nH]1)NC(=O)[C@H](CC(C)C)NC(=O)[C@@H](NC(=O)[C@@H](NC(=O)[C@H](CCCCN)NC(=O)[C@H](CCCCN)NC(=O)[C@H](C)NC(=O)[C@H](CO)NC(=O)[C@H](CCCCN)NC(=O)[C@H](Cc1ccccc1)NC(=O)[C@@H](NC(=O)[C@H](CCCCN)NC(=O)[C@H](CC(C)C)NC(=O)[C@H](Cc1ccccc1)NC(=O)[C@H](CO)NC(=O)[C@H](CCCCN)NC(=O)[C@H](Cc1c[nH]c2ccccc12)NC(=O)[C@H](CCCCN)NC(C)=O)[C@@H](C)O)[C@@H](C)O)C(C)C)[C@@H](C)O)C(=O)N[C@@H](CO)C(=O)N[C@@H](CO)C(N)=O` [Peptide V13K], the MIC in the data set on S. aureus ATCC25923 was 32 µM (≈ 95.7 µg/mL). Besides, the “Morphology of bacterial membrane by AFM” value in the data set on E. coli ATCC25922 is on record as “obvious damage to the morphology of bacterial membrane”. The “MHC (minimal hemolytic concentration)” value in data set [1] came to 250 µM. Further, the “Morphology of HeLa cell membrane by AFM” value with HeLa cells is “pores and cavities were visible on the surface of the cells”.

One may read the MIC as the lowest concentration found to suppress growth. Low values mean greater potency, high ones weaker potency.
